According to publication PMC8284440, “Toward New Transmission-Blocking Combination Therapies: Pharmacokinetics of 10-Amino-Artemisinins and 11-Aza-Artemisinin and Comparison with Dihydroartemisinin and Artemether” (Antimicrobial Agents and Chemotherapy, 2021):
Converted amounts (≈) assume the structure as drawn. Like-named read-outs stand apart in the source and are kept apart here.

How the values were obtained:
[1] = system: early stage (>90% stage I-III) P. falciparum NF54 gametocytes; conditions: cited from earlier work
[2] = system: late stage (>90% stage IV and V) P. falciparum NF54 gametocytes; conditions: cited from earlier work
[3] = Pharmacokinetics in mice, oral administration; assay type: in vivo, male C57/BL6 mice; conditions: for bioavailability / Cmax / Tmax: male, C57/BL6, mouse, plasma; for bioavailability: 50 mg/kg; for bioavailability / F: oral bioavailability, p.o. 50 mg/kg vs i.v. 10 mg/kg; for Cmax / Tmax / AUC: p.o. 50 mg/kg, parent; for AUC: 0 h to last
Experimental: (i) Animals. Healthy male C57/BL6 mice each weighing approximately 25 g were used. The mice maintained at the University of Cape Town animal facility were housed in 27 by 21 by 18 cm cages, under controlled environmental conditions at 22 ± 2°C and a 12-h light/dark cycle. Humidity was monitored and ranged between 55 and 70%. Food and water were available ad libitum. Mice were acclimatized to their environment for 7 days before experiments were initiated.
(ii) Oral drug administration. Each of artemether, the amino-artemisinins 5 to 10, and 11-aza-artemisinin 11 (12.5 mg) was dissolved in 0.2 ml DMSO, to which 1.8 ml 0.5% (wt/vol) HPMC in water was then added. Compounds were administered orally via gavage at a dose of 50 mg/kg (n = 3). Dosing volumes were calculated based on the weight of each mouse in the respective group. The dosing volumes ranged between 160 μl and 200 μl, ensuring that the dose remained at 50 mg/kg. Blood samples for amino-artemisinins 5 to 8 and 10 were collected via tail-bleeding predose and at 0.08, 0.25, 0.5, 1, 2, and 4 h. Blood samples for the phenylurea 9 and 11-aza-artemisinin 11 were collected at 0.08, 0.5, 1, 2, 4, 8, and 24 h postdose. Samples were placed in 0.5 ml lithium heparin micro vials to prevent blood coagulation. […] The samples were immediately centrifuged at 5,590 × g for 5 min and the plasma was transferred to new microvials. The plasma samples were stored at −80°C.
(§1) Sample extraction. […] The organic layer was then transferred and evaporated under a gentle stream of nitrogen at room temperature for 30 min. The dried samples were reconstituted in mobile phase, and a 5 μl sample was injected for LC-MS/MS analysis. The only exception was the arylurea 10, for which no liquid-liquid extraction was conducted; instead, the 200 μl acetonitrile solution was evaporated under a gentle stream of nitrogen at room temperature. The dried sample was reconstituted in the mobile phase, and a 5 μl sample was injected for LC-MS/MS analysis. The plasma samples for each compound from the in vivo studies were extracted by mixing 350 μl ethyl acetate with 15 μl of plasma sample and 35 μl of universal buffer containing internal standard at pH 8. The samples were vortexed for 1 min and centrifuged for 5 min, and the organic layer was then transferred and evaporated under a gentle stream of nitrogen at room temperature for 30 min. The dried samples were each reconstituted in the mobile phase, and a 5 μl sample was injected for LC-MS/MS analysis.
(§2) LC-MS/MS analysis. For all the artemisinins except the arylurea 10, gradient chromatography was performed on a Phenomenex (Torrance, CA, USA) Luna PFP(2) analytical column (100 Å, 5 μm, 2 by 50 mm) and an AB Sciex API 5500 mass spectrometer which was operated at unit resolution in the multiple reaction monitoring (MRM) mode. The HPLC method used was a gradient method with 5 mM ammonium acetate and 0.1% acetic acid in water as the aqueous phase and a mixture of acetonitrile and methanol (1:1 vol/vol) containing 5% of the aqueous phase as the organic phase ([89]). The arylurea 10 was analyzed using a Phenomenex Gemini NX-C18 (5 μm, 2.1 mm by 50 mm) column with an AB Sciex 3200 QTRAP mass spectrometer operated at unit resolution in the MRM mode. The HPLC method used was a gradient method with 5 mM ammonium acetate and 0.1% acetic acid in water as the aqueous phase and a mixture of acetonitrile and methanol (1:1 vol/vol). The transitions of the molecular ions were monitored, as listed in Table S8 in the supporting information. The calibration range was between 0.002 μg/ml and 6.250 μg/ml.

[4] = Plasma protein binding (ultracentrifugation); assay type: in vitro ADME; conditions: pooled plasma, human plasma, read-out: Plasma protein binding fu
Experimental: (iii) Plasma protein binding. Plasma protein binding was measured using an ultracentrifugation method. The assay was performed using a 96-well microtiter plate with pooled human plasma spiked with the test compound (10 μM). […] This served as the total concentration sample. After preincubation at 37°C for 1 h, duplicate aliquots of the spiked plasma were transferred to ultracentrifugation tubes and ultracentrifuged for 4 h (216,937 × g, 37°C, Beckman Optima L-80XP). […] Sample extraction. […] LC-MS/MS analysis.

[5] = Kinetic solubility; assay type: physicochemical
Experimental: For kinetic solubility assays, three solutions with differing pH were prepared. Phosphate-buffered saline (PBS) was prepared by mixing KH2PO4 (0.2 g), K2HPO4 (0.115 g), NaCl (0.8 g), and KCl (0.2 mg) in purified water (100 ml). The pH was measured and adjusted using 0.05 M HCl or 0.05 M NaOH to pH 7.4. The pH 2 solution was prepared by adding HCl (37%, 83 μl) to purified water (50 ml). FaSSIF buffer at pH 6.5 was prepared by adding KH2PO4 (2.042 g) and KCl (3.728 g) to purified water (450 ml) and adjusting the pH to 6.5 using 0.05 M HCl or 0.05 M NaOH as required. Simulated intestinal fluid (SIF) (Biorelevant, London, UK) powder (5.6 mg) was then added to the buffer (25 ml) to complete the process.
(i) Kinetic solubility. Duplicate stock solutions of each compound at a concentration of 10 mM in DMSO were prepared in a 96-well plate in PBS at pH 7.4, water at pH 2, and FaSSIF buffer at pH 6.5 to a final concentration of 200 μM ([68]). These three solutions mimic the pH and conditions of the gastrointestinal tract. As the FaSSIF buffer mimics the fasted state in vitro, solubility in this buffer provides a guide as to whether compounds should be dosed with or without meals ([87]). Calibration standards were prepared for each compound in DMSO at 11, 100, and 220 μM. These standards were used to produce a calibration curve required for calculation of the concentration of each compound in the test solutions. […] Plates were agitated on a plate shaker for 2 h (500 rpm, 22°C). Sample analysis was carried out by liquid chromatography-tandem mass spectrometry (LC-MS/MS) analysis as described in “Sample analysis” below. Peak areas were integrated, and calibration curves were constructed and used to calculate the concentrations of each compound in the three buffers.
as §1, §2

[6] = Table S3, ± SEM, ref 1 and 2 (supplement; main text 47, 48), read-out: Early Stage (EG, Luc 48 h) IC50
[7] = Table S3, ± SEM, ref 1 and 2 (supplement; main text 47, 48), read-out: Late Stage (LG, Luc 72 h) IC50
[8] = metabolite formed from p.o. artemiside 5, 50 mg/kg
[9] = FaSSIF buffer, 22 °C, pH 6.5, fassif, kinetic from dmso stock, read-out: Solubility FaSSIF pH 6.5
[10] = PBS, 22 °C, pH 7.4, aqueous buffer, kinetic from dmso stock, read-out: Solubility pH 7.4
[11] = pH 2 solution (HCl in water), 22 °C, pH 2, kinetic from dmso stock, read-out: Solubility pH 2
[12] = Table S4, ± SEM, n = 3, ref 4 (supplement; main text 62), read-out: Early stage IC50 (Luciferase 48 h)
[13] = Table S4, n = 1, ref 4 (supplement; main text 62), read-out: Late stage IC50 (Luciferase 72 h)

For `C[C@H]1[C@@H](O)O[C@@H]2O[C@@]3(C)CC[C@H]4[C@H](C)CC[C@@H]1[C@@]24OO3` [DHA 2, dihydroartemisinin], the IC50 [1, 6] is listed as 43 ± 3.9 nM, the IC50 [2, 7] is listed as 33.7 ± 1.98 nM and the AUC of metabolite ([3]; metabolite formed from p.o. artemether 3, 50 mg/kg) is listed as 77 ± 12 min/µmol/L.

For `C[C@H]1[C@H](N2CCS(=O)(=O)CC2)O[C@@H]2O[C@@]3(C)CC[C@H]4[C@H](C)CC[C@@H]1[C@@]24OO3` [Artemisone 6, artemisone], the IC50 [1, 6] is given as 1.94 nM, the fraction unbound at 4 h, 10 µM [4] is given as 0.14 and the IC50 [2, 7] is given as 42.4 ± 3.3 nM. The bioavailability ([3]; po) was 32%, the Cmax ([3]; po) was 8000 ± 800 nM and the Tmax ([3]; po) was 18 ± 6 min. It also gave an AUC of metabolite [3, 8] of 101.5 ± 49 min/µmol/L, an F [3] of 34 ± 7.5% and an AUC [3] of 922.7 ± 348 min/µmol/L. It also gave a solubility at 2 h [5, 9] of 74.4 µM (≈ 29.9 µg/mL), a solubility at 2 h [5, 10] of 120 µM (≈ 48.3 µg/mL) and a solubility at 2 h [5, 11] of 73.7 µM (≈ 29.6 µg/mL).

For `C[C@H]1[C@H](N2CCSCC2)O[C@@H]2O[C@@]3(C)CC[C@H]4[C@H](C)CC[C@@H]1[C@@]24OO3` [Artemiside 5, artemiside], the IC50 [1, 6] is listed as 16.4 ± 1 nM, the fraction unbound at 4 h, 10 µM [4] is listed as 0.23 and the IC50 [2, 7] is listed as 1.5 ± 0.5 nM. It also gave a bioavailability ([3]; po) of 1 ± 0.2%, a Cmax ([3]; po) of 100 ± 10 nM and a Tmax ([3]; po) of 60 ± 54 min. For the same compound, the AUC [3] was 9.5 ± 2.5 min/µmol/L, the solubility at 2 h [5, 9] was < 5 µM and the solubility at 2 h [5, 10] was < 5 µM. It also gave a solubility at 2 h [5, 11] of 12.4 µM (≈ 4.58 µg/mL).

For `C[C@@H]1CC[C@H]2[C@@H](C)C(=O)N[C@@H]3O[C@@]4(C)CC[C@@H]1[C@]32OO4` [11-Aza-artemisinin 11, 11-aza-artemisinin], the IC50 [1, 12] is listed as 170 nM, the fraction unbound at 4 h, 10 µM [4] is listed as 0.13 and the IC50 [2, 13] is listed as 166 nM. For the same compound, the bioavailability ([3]; oral) was 7%, the bioavailability ([3]; po) was 14% and the Cmax ([3]; po) was 2600 ± 10 nM. It also gave a Tmax ([3]; po) of 30 min, an F [3] of 7.15 ± 0.3% and an AUC [3] of 154.9 ± 10 min/µmol/L. The solubility at 2 h [5, 9] was > 150 µM, the solubility at 2 h [5, 10] was 144 µM (≈ 40.6 µg/mL) and the solubility at 2 h ([5]; pH 2, FaSSIF pH 6.5 and pH 7.4 together, read-out: Solubility in the three aqueous solutions) was > 144 µM. For the same compound, the solubility at 2 h [5, 11] was > 150 µM.

For `C[C@H]1[C@H](NS(N)(=O)=O)O[C@@H]2O[C@@]3(C)CC[C@H]4[C@H](C)CC[C@@H]1[C@@]24OO3` [Sulfamide 7], the IC50 [1, 6] is given as 15 ± 2 nM, the fraction unbound at 4 h, 10 µM [4] is given as 0.17 and the IC50 [2, 7] is given as 419 nM. For the same compound, the bioavailability ([3]; po) was 59%, the Cmax ([3]; po) was 21700 ± 1200 nM and the Tmax ([3]; po) was 36 ± 12 min. For the same compound, the F [3] was 59.3 ± 11.6%, the AUC [3] was 2,562.3 ± 499 min/μmol/liter and the solubility at 2 h [5, 9] was < 5 µM. For the same compound, the solubility at 2 h [5, 10] was 11.5 µM (≈ 4.17 µg/mL) and the solubility at 2 h [5, 11] was > 150 µM.

In the case of `CO[C@H]1O[C@@H]2O[C@@]3(C)CC[C@H]4[C@H](C)CC[C@@H]([C@H]1C)[C@@]24OO3` [Artemether 3, artemether], the IC50 [1, 12] is given as 37.7 ± 2.08 nM, the fraction unbound at 4 h, 10 µM [4] is given as 0.14 and the IC50 [2, 13] is given as 224 nM. It also gave a bioavailability ([3]; po) of 2 ± 0.6%, a Cmax ([3]; po) of 600 ± 200 nM and a Tmax ([3]; po) of 6 min. The AUC [3] was 32.3 ± 20 min/µmol/L.

In the case of `C[C@H]1[C@H](N2CCN(C(=O)Nc3ccc(F)cc3)CC2)O[C@@H]2O[C@@]3(C)CC[C@H]4[C@H](C)CC[C@@H]1[C@@]24OO3` [Arylurea 10], the IC50 [1, 6] is given as 36 ± 10.2 nM, the fraction unbound at 4 h, 10 µM [4] is given as 0.02 and the IC50 [2, 7] is given as 17 ± 7 nM. The bioavailability ([3]; po) was 17.5 ± 3.1%, the Cmax ([3]; po) was 2300 ± 300 nM and the Tmax ([3]; po) was 30 min. It also gave an AUC [3] of 276.5 ± 48.4 min/µmol/L, a solubility at 2 h [5, 9] of 24 µM (≈ 11.8 µg/mL) and a solubility at 2 h [5, 10] of 27 µM (≈ 13.2 µg/mL). It also gave a solubility at 2 h [5, 11] of 10 µM (≈ 4.9 µg/mL).

`C[C@H]1[C@H](N2C=CS(=O)(=O)CC2)O[C@@H]2O[C@@]3(C)CC[C@H]4[C@H](C)CC[C@@H]1[C@@]24OO3` [M1 12] showed a fraction unbound at 4 h, 10 µM [4] of 0.25, an AUC of metabolite [3, 8] of 20.8 ± 8 min/µmol/L and an AUC of metabolite ([3]; metabolite formed from p.o. artemisone 6, 50 mg/kg) of 173.3 ± 51.7 min/µmol/L. For the same compound, the solubility at 2 h [5, 9] was 57.6 µM (≈ 23 µg/mL), the solubility at 2 h [5, 10] was 74.5 µM (≈ 29.8 µg/mL) and the solubility at 2 h [5, 11] was > 150 µM.
